A word on the IC50: it is the concentration that gives 50% inhibition. A low value points to inhibition by little substance.

Bounds are passed on as bounds.

Consider 2 compounds from BindingDB's records for doi:10.7270/Q25719HD (The Scripps Research Institute Molecular Screening Center, 2010).

The target of this experiment is T1, Cytochrome b-245 heavy chain (Homo sapiens, UniProt P04839).
T1 sequence (P04839 whole entry): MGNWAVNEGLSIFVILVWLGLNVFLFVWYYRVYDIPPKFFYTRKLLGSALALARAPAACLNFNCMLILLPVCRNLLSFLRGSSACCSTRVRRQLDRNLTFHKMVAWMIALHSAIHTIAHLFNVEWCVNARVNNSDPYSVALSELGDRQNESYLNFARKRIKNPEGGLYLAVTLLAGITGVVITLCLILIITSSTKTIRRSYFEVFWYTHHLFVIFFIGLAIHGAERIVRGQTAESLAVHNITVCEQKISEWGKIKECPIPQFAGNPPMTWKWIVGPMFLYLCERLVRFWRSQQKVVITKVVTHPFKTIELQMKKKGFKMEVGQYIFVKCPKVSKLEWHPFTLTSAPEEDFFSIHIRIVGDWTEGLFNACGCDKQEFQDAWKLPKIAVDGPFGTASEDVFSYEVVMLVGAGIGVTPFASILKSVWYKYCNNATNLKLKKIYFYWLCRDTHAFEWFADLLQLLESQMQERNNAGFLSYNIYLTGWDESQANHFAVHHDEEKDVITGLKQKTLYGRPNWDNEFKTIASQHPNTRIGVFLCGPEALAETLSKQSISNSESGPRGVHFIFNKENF
As to the kind of experiment: PubChem AID 435013.

`CN(C)c1ccc(CN=Nc2c(Cl)cncc2Cl)cc1` showed an IC50 of over 10 µM. The figure for `Oc1c(Br)cc(CN=Nc2c(Cl)cncc2Cl)cc1Br` [4-[[2-[3,5-bis(chloranyl)pyridin-4-yl]hydrazinyl]methylidene]-2,6-bis(bromanyl)cyclohexa-2,5-dien-1-one] is over 50 µM.
